Experimental data reported in the Kinase Knowledgebase extract (Sharma et al. 2016).
“And” between values parts separate entries of the source, which are not always exact repeats. Equal values may be shown once.

These molecules were tested against ROCK2 (human) (UniProt O75116) (assay: Inhibition of ROCK2 Kinase Activity).
Sequence of ROCK2 (human) (O75116 whole entry, looked up): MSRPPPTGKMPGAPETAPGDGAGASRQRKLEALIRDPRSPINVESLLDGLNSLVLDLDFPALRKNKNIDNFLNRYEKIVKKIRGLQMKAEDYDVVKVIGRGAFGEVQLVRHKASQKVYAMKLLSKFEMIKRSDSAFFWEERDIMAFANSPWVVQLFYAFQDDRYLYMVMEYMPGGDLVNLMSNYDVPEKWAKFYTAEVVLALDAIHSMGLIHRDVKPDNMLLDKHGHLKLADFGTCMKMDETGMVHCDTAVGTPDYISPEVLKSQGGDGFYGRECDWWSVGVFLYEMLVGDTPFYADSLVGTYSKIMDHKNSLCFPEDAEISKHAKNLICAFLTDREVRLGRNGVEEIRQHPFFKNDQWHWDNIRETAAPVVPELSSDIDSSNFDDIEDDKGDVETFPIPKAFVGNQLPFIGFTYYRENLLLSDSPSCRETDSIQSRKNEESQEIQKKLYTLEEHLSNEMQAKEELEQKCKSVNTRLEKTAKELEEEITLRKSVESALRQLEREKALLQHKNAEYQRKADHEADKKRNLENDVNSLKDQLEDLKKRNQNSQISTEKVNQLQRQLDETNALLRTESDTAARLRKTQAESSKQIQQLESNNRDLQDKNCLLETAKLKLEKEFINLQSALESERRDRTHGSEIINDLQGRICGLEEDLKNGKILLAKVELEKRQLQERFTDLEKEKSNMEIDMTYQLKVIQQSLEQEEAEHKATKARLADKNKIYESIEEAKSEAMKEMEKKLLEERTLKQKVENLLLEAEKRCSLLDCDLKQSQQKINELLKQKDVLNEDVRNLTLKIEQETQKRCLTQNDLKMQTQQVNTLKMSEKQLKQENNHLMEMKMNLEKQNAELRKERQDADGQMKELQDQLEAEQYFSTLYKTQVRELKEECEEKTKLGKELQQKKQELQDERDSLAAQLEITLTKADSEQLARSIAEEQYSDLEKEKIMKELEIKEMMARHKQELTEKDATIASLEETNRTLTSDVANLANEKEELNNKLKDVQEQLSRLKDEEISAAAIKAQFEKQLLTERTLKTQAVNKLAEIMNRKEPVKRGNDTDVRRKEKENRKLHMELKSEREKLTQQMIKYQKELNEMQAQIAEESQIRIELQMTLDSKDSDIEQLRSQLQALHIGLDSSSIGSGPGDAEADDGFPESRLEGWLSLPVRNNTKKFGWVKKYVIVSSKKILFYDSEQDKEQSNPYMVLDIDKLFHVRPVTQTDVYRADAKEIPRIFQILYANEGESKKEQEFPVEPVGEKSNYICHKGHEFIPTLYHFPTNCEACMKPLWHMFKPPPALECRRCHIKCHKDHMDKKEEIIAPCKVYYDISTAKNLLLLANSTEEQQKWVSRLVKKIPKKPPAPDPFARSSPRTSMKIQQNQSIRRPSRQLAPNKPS
For `CCC(N)[C@]1(OC)CC[C@H](Oc2cc3cc[nH]c(=O)c3cc2Cl)CC1` (some centres undefined), the IC50 was 10 to 100 nM. With `CCC(N)C1(C2CCC2)CCC(Oc2cc3cc[nH]c(=O)c3cc2Cl)CC1` (centres undefined) the IC50 was 10 to 100 nM and 100 to 1000 nM. With `CCC(N)[C@]1(C2CCS(=O)(=O)CC2)CC[C@H](Oc2cc3cc[nH]c(=O)c3cc2Cl)CC1` (some centres undefined) the IC50 was ≤ 10 nM. For `CCC(N)[C@]1(C)CC[C@H](Oc2cc3cc[nH]c(=O)c3cc2Cl)CC1` (some centres undefined), the IC50 was ≤ 10 nM. Work on `CCC(N)[C@]1(CC)CC[C@H](Oc2cc3ccncc3cc2C)CC1` (some centres undefined) yielded an IC50 of 100 to 1000 nM. In the case of `CCC(N)C1(CC2CC2)CCC(Oc2cc3cc[nH]c(=O)c3cc2Cl)CC1` (centres undefined), the IC50 is reported as 10 to 100 nM and ≤ 10 nM. `CCC(N)[C@]1(CCCC(F)(F)F)CC[C@H](Oc2cc3cc[nH]c(=O)c3cc2Cl)CC1` (some centres undefined) was tested, and the IC50 was ≤ 10 nM. With `CC[C@]1(C(C)N)CC[C@@H](Oc2cc3cc[nH]c(=O)c3cc2F)CC1` (some centres undefined) the IC50 was 10 to 100 nM. For `CCC(N)C1(CC(C)C)CCC(Oc2cc3cc[nH]c(=O)c3cc2Cl)CC1` (centres undefined), the IC50 was 10 to 100 nM and 100 to 1000 nM. `CCC(N)[C@]1(C2CCSCC2)CC[C@H](Oc2cc3cc[nH]c(=O)c3cc2Cl)CC1` (some centres undefined) was tested, and the IC50 was ≤ 10 nM. For `CCCC(N)[C@]1(C(C)C)CC[C@H](Oc2cc3cc[nH]c(=O)c3cc2Cl)CC1` (some centres undefined), the IC50 was 10 to 100 nM. `CCC(N)C1(Cc2ccccc2)CCC(Oc2cc3cc[nH]c(=O)c3cc2Cl)CC1` (centres undefined) was tested, and the IC50 was 10 to 100 nM. `CCOC[C@]1(C(N)CC)CC[C@@H](Oc2cc3cc[nH]c(=O)c3cc2Cl)CC1` (some centres undefined) was tested, and the IC50 was ≤ 10 nM. In the case of `CCC(N)[C@]1(C2CCCCC2)CC[C@H](Oc2cc3cc[nH]c(=O)c3cc2Cl)CC1` (some centres undefined), the IC50 is reported as 10 to 100 nM. With `NC(C1CC1)C1(CC2CC2)CCC(Oc2cc3cc[nH]c(=O)c3cc2Cl)CC1` (centres undefined) the IC50 was 10 to 100 nM and ≤ 10 nM. `NC(c1ccccc1)C1(C2CCCC2)CCC(Oc2cc3cc[nH]c(=O)c3cc2Cl)CC1` (centres undefined) showed an IC50 of 10 to 100 nM. `CC[C@]1(C(C)N)CC[C@@H](Oc2c(F)cc3c(=O)[nH]ccc3c2C)CC1` (some centres undefined) gave an IC50 of 100 to 1000 nM. `CCC(N)[C@]1(CC2CCOCC2)CC[C@H](Oc2cc3cc[nH]c(=O)c3cc2Cl)CC1` (some centres undefined) was tested, and the IC50 was 10 to 100 nM. With `NC(C1CC1)[C@]1(CC2CCOCC2)CC[C@H](Oc2cc3cc[nH]c(=O)c3cc2Cl)CC1` (some centres undefined) the IC50 was ≤ 10 nM. With `CC(C)CC(N)[C@]1(CC2CC2)CC[C@H](Oc2cc3cc[nH]c(=O)c3cc2Cl)CC1` (some centres undefined) the IC50 was ≤ 10 nM. `CCC(N)C1(C)CCC(Oc2cc3cc[nH]c(=O)c3cc2Cl)CC1` (centres undefined) gave an IC50 of 10 to 100 nM. For `CCC(N)[C@]1(C2CCOCC2)CC[C@@H](Oc2cc3cc[nH]c(=O)c3cc2Cl)CC1` (some centres undefined), the IC50 was 100 to 1000 nM. With `CC[C@H](N)[C@]1(CC)CC[C@H](Oc2cc3cc[nH]c(=O)c3cc2Cl)CC1` the IC50 was ≤ 10 nM. In the case of `CCC(NCC(C)C)[C@]1(CC)CC[C@H](Oc2cc3cc[nH]c(=O)c3cc2Cl)CC1` (some centres undefined), the IC50 is reported as 100 to 1000 nM. Work on `CCC(NCC1CC1)[C@]1(CC)CC[C@H](Oc2cc3cc[nH]c(=O)c3cc2Cl)CC1` (some centres undefined) yielded an IC50 of 100 to 1000 nM. `CCCCNC(CC)[C@]1(CC)CC[C@H](Oc2cc3cc[nH]c(=O)c3cc2Cl)CC1` (some centres undefined) was tested, and the IC50 was 100 to 1000 nM. `CCC(N)[C@]1(C2CC2)CC[C@H](Oc2cc3cc[nH]c(=O)c3cc2Cl)CC1` (some centres undefined) was tested, and the IC50 was ≤ 10 nM. `CCC(N)[C@]1(CC)CC[C@H](Oc2c(C)cc3c(=O)[nH]ccc3c2C)CC1` (some centres undefined) gave an IC50 of 100 to 1000 nM. `CCC(NCc1ccccc1)[C@]1(CC)CC[C@H](Oc2cc3cc[nH]c(=O)c3cc2Cl)CC1` (some centres undefined) showed an IC50 of 100 to 1000 nM. `CCC(N)[C@]1(CC)CC[C@H](Oc2cc3cc[nH]c(=O)c3cc2F)CC1` (some centres undefined) gave an IC50 of 10 to 100 nM. With `CC[C@]1(C(C)N)CC[C@@H](Oc2ccc3cnccc3c2Cl)CC1` (some centres undefined) the IC50 was 100 to 1000 nM. With `CC(C)C1(C(N)c2cncs2)CCC(Oc2cc3cc[nH]c(=O)c3cc2Cl)CC1` (centres undefined) the IC50 was 10 to 100 nM. With `CCC(N)[C@]1(C(C)C)CC[C@H](Oc2cc3c(F)c[nH]c(=O)c3cc2Cl)CC1` (some centres undefined) the IC50 was 10 to 100 nM. In the case of `CCC(N)[C@]1(CC)CC[C@H](Oc2c(F)cc3c(=O)[nH]ccc3c2C)CC1` (some centres undefined), the IC50 is reported as 100 to 1000 nM. `C[C@]1(C(N)c2ccccc2)CC[C@@H](Oc2cc3cc[nH]c(=O)c3cc2Cl)CC1` (some centres undefined) showed an IC50 of 10 to 100 nM. With `CC[C@@H](N)[C@]1(C)CC[C@H](Oc2cc3cc[nH]c(=O)c3cc2Cl)CC1` the IC50 was ≤ 10 nM. In the case of `CCC(N)C1(C2CCCC2)CCC(Oc2cc3cc[nH]c(=O)c3cc2Cl)CC1` (centres undefined), the IC50 is reported as 10 to 100 nM. For `CCCC(N)C1(CC2CC2)CCC(Oc2cc3cc[nH]c(=O)c3cc2Cl)CC1` (centres undefined), the IC50 was 10 to 100 nM and ≤ 10 nM. `CC[C@@H](N)[C@]1(C2CCOCC2)CC[C@H](Oc2cc3cc[nH]c(=O)c3cc2Cl)CC1` was tested, and the IC50 was ≤ 10 nM. In the case of `NC(c1ccccc1)[C@]1(CC2CC2)CC[C@H](Oc2cc3cc[nH]c(=O)c3cc2Cl)CC1` (some centres undefined), the IC50 is reported as 100 to 1000 nM. For `CC(C)C(N)C1(CC2CC2)CCC(Oc2cc3cc[nH]c(=O)c3cc2Cl)CC1` (centres undefined), the IC50 was ≤ 10 nM. With `CCOC1(C(N)CC)CCC(Oc2cc3cc[nH]c(=O)c3cc2Cl)CC1` (centres undefined) the IC50 was 10 to 100 nM. In the case of `CC(N)C1(CC2CC2)CCC(Oc2cc3cc[nH]c(=O)c3cc2Cl)CC1` (centres undefined), the IC50 is reported as 10 to 100 nM and ≤ 10 nM. For `CCCC[C@]1(C(N)CC)CC[C@@H](Oc2cc3cc[nH]c(=O)c3cc2Cl)CC1` (some centres undefined), the IC50 was ≤ 10 nM. For `CCC(N)C1(COC(C)C)CCC(Oc2cc3cc[nH]c(=O)c3cc2Cl)CC1` (centres undefined), the IC50 was 10 to 100 nM and 100 to 1000 nM. For `C[C@]1(C(N)C2CC2)CC[C@@H](Oc2cc3cc[nH]c(=O)c3cc2Cl)CC1` (some centres undefined), the IC50 was ≤ 10 nM. Molecule `CC[C@]1(C(N)CF)CC[C@H](Oc2cc3cc[nH]c(=O)c3cc2Cl)CC1` (some centres undefined) has an IC50 of 10 to 100 nM. `CC[C@]1(C(C)N)CC[C@@H](Oc2c(F)cc3cnccc3c2C)CC1` (some centres undefined) was tested, and the IC50 was 100 to 1000 nM. In the case of `CC[C@@H](N)[C@]1(CC)CC[C@H](Oc2cc3cc[nH]c(=O)c3cc2Cl)CC1`, the IC50 is reported as ≤ 10 nM. `CC(C)C(N)C1(C(C)C)CCC(Oc2cc3cc[nH]c(=O)c3cc2Cl)CC1` (centres undefined) gave an IC50 of 100 to 1000 nM. Work on `CCC(N)[C@]1(CC)CC[C@H](Oc2c(F)cc3cnccc3c2C)CC1` (some centres undefined) yielded an IC50 of 100 to 1000 nM. With `NC(C1CC1)[C@]1(C2CC2)CC[C@H](Oc2cc3cc[nH]c(=O)c3cc2Cl)CC1` (some centres undefined) the IC50 was ≤ 10 nM. In the case of `CCC1(C(N)CCOC)CCC(Oc2cc3cc[nH]c(=O)c3cc2Cl)CC1` (centres undefined), the IC50 is reported as 10 to 100 nM. In the case of `NC(C1CC1)[C@]1(CCCC(F)(F)F)CC[C@H](Oc2cc3cc[nH]c(=O)c3cc2Cl)CC1` (some centres undefined), the IC50 is reported as ≤ 10 nM. In the case of `CCC(N)[C@]1(CC)CC[C@H](Oc2c(C)cc3cnccc3c2C)CC1` (some centres undefined), the IC50 is reported as 100 to 1000 nM. `CC(N)C1(C2CCC2)CCC(Oc2cc3cc[nH]c(=O)c3cc2Cl)CC1` (centres undefined) was tested, and the IC50 was 10 to 100 nM. For `CCCC1(C(N)CC)CCC(Oc2cc3cc[nH]c(=O)c3cc2Cl)CC1` (centres undefined), the IC50 was ≤ 10 nM. `CCC(N)[C@]1(C2CCOCC2)CC[C@H](Oc2cc3cc[nH]c(=O)c3cc2Cl)CC1` (some centres undefined) was tested, and the IC50 was ≤ 10 nM. `CCCC1(C(N)C2CC2)CCC(Oc2cc3cc[nH]c(=O)c3cc2Cl)CC1` (centres undefined) was tested, and the IC50 was ≤ 10 nM and 10 to 100 nM. In the case of `CCC(N)C1(C(C)C)CCC(Oc2cc3cc[nH]c(=O)c3cc2Cl)CC1` (centres undefined), the IC50 is reported as ≤ 10 nM and 10 to 100 nM. `CC[C@]1(C(N)CF)CC[C@@H](Oc2cc3cc[nH]c(=O)c3cc2Cl)CC1` (some centres undefined) was tested, and the IC50 was ≤ 10 nM. Work on `CC[C@]1(C(C)N)CC[C@@H](Oc2cc3ccncc3cc2Br)CC1` (some centres undefined) yielded an IC50 of 100 to 1000 nM. `CC[C@H](N)[C@]1(C2CCOCC2)CC[C@H](Oc2cc3cc[nH]c(=O)c3cc2Cl)CC1` was tested, and the IC50 was 10 to 100 nM. `CC[C@]1(C(C)N)CC[C@@H](Oc2cc3cc[nH]c(=O)c3cc2C)CC1` (some centres undefined) gave an IC50 of 10 to 100 nM. Work on `CC(N)[C@]1(C2CC2)CC[C@H](Oc2cc3cc[nH]c(=O)c3cc2Cl)CC1` (some centres undefined) yielded an IC50 of 10 to 100 nM. With `CC(C)C1(C(N)c2nccs2)CCC(Oc2cc3cc[nH]c(=O)c3cc2Cl)CC1` (centres undefined) the IC50 was 100 to 1000 nM. With `CC[C@H](N)[C@]1(C)CC[C@H](Oc2cc3cc[nH]c(=O)c3cc2Cl)CC1` the IC50 was ≤ 10 nM. `CCCC[C@]1(C(N)CC)CC[C@@H](Oc2cc3c(Cc4ccccc4)c[nH]c(=O)c3cc2Cl)CC1` (some centres undefined) showed an IC50 of 100 to 1000 nM. In the case of `NC(C(F)(F)F)C1(CC2CC2)CCC(Oc2cc3cc[nH]c(=O)c3cc2Cl)CC1` (centres undefined), the IC50 is reported as 100 to 1000 nM. `CC[C@]1(C(N)C2CC2)CC[C@@H](Oc2cc3cc[nH]c(=O)c3cc2Cl)CC1` (some centres undefined) was tested, and the IC50 was ≤ 10 nM. Molecule `CCC(N)[C@]1(CC)CC[C@H](Oc2cc3cc[nH]c(=O)c3cc2C)CC1` (some centres undefined) has an IC50 of 100 to 1000 nM. Work on `CC[C@]1(C(C)N)CC[C@@H](Oc2cc3c(Cc4ccccc4)c[nH]c(=O)c3cc2Cl)CC1` (some centres undefined) yielded an IC50 of 100 to 1000 nM. For `CCC1(C(C)N)CCC(Oc2cc3cc[nH]c(=O)c3cc2Cl)CC1` (centres undefined), the IC50 was 10 to 100 nM and ≤ 10 nM. `CCC(N)[C@]1(OC)CC[C@@H](Oc2cc3cc[nH]c(=O)c3cc2Cl)CC1` (some centres undefined) gave an IC50 of 10 to 100 nM. In the case of `CCC(N)[C@]1(CC)CC[C@H](Oc2cc3cc[nH]c(=O)c3cc2Cl)CC1` (some centres undefined), the IC50 is reported as ≤ 10 nM. `CCC(N)C1(C(F)(F)F)CCC(Oc2cc3cc[nH]c(=O)c3cc2Cl)CC1` (centres undefined) was tested, and the IC50 was 100 to 1000 nM and ≤ 10 nM. `CCC[C@]1(C(C)N)CC[C@@H](Oc2cc3ccnc(N)c3cc2Cl)CC1` (some centres undefined) showed an IC50 of 100 to 1000 nM. `CCC[C@]1(C(C)N)CC[C@@H](Oc2cc3cc[nH]c(=O)c3cc2Cl)CC1` (some centres undefined) was tested, and the IC50 was ≤ 10 nM. With `CCCC(N)[C@]1(C)CC[C@H](Oc2cc3cc[nH]c(=O)c3cc2Cl)CC1` (some centres undefined) the IC50 was ≤ 10 nM.
